From ChEMBL document CHEMBL3992545, “Discovery and dimeric approach of novel Natriuretic Peptide Receptor A (NPR-A) agonists” (Bioorg Med Chem, 2017)
Active and inactive are the calls of the source. No cut-off for these calls is given here.

Columns and labels:
[1] = system: Rattus norvegicus; test: Diuretic activity in iv dosed Crl:CD(SD) rat assessed as increase in urine volume administered as bolus dose measured up to 60 mins; type: functional, organism-based
[2] = biological target: T1, Atrial natriuretic peptide receptor 1 (Rattus norvegicus, UniProt P18910); test: Agonist activity at rat NPR-A expressed in CHO cells assessed as increase in cGMP accumulation after 15 mins by fluorescent assay; type: cell-based
T1 sequence (P18910 whole entry): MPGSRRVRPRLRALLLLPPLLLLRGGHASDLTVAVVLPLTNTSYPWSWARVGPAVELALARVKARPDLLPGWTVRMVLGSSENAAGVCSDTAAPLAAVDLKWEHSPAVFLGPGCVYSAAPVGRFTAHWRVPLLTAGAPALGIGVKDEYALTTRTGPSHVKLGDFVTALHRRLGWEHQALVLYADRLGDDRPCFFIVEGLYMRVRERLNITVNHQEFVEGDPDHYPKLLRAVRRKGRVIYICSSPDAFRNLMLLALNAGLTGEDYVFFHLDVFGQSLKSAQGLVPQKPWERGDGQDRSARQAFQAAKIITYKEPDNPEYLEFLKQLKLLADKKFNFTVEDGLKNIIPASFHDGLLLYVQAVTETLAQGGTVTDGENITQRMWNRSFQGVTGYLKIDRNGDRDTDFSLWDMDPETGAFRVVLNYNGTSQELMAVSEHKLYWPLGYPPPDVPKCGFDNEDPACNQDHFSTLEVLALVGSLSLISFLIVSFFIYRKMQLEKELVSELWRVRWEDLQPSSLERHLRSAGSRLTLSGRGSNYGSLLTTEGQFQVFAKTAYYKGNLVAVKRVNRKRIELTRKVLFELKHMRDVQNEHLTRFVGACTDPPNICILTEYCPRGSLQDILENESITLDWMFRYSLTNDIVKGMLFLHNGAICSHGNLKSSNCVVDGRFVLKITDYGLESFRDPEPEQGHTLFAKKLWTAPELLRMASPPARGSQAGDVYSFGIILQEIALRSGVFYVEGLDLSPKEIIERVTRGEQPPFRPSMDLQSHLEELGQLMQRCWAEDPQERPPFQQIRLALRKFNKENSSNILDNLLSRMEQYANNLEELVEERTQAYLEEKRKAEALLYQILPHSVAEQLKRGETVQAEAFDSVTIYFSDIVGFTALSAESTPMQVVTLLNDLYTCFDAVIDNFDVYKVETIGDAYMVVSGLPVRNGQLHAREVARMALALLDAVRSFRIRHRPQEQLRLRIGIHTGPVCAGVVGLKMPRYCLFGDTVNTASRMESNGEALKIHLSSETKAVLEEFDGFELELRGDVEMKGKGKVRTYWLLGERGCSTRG

[3] = biological target: T2, Atrial natriuretic peptide receptor 1 (Homo sapiens, UniProt P16066); test: Agonist activity at human NPR-A expressed in CHO cells assessed as increase in cGMP accumulation after 30 mins by radioimmunoassay; type: cell-based
T2 sequence (P16066 whole entry): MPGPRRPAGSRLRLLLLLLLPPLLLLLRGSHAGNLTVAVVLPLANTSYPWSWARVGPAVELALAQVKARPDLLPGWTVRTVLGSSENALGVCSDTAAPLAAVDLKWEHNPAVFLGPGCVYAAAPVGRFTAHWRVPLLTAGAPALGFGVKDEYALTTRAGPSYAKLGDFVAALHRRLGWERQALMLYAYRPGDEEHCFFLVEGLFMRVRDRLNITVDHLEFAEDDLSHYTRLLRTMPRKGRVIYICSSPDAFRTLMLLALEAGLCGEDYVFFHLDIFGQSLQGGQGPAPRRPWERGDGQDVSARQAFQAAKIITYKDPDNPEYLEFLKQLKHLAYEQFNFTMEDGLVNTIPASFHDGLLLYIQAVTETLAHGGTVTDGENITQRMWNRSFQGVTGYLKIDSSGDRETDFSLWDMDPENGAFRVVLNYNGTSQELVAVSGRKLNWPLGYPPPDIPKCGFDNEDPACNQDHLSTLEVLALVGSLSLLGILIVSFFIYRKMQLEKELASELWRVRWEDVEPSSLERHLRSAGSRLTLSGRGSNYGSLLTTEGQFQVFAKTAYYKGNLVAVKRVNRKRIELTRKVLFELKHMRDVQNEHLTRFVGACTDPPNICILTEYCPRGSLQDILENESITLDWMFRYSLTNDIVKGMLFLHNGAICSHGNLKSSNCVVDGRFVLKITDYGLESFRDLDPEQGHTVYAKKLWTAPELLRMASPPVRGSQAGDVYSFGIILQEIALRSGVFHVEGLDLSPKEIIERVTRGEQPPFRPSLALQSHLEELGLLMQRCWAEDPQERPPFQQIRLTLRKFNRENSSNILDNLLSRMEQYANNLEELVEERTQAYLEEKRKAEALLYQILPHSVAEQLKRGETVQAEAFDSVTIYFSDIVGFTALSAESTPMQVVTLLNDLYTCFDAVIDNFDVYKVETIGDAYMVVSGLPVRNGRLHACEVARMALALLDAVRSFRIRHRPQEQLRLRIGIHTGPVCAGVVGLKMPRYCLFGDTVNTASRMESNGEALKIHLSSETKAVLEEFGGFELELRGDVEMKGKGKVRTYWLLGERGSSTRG

[4] = system: Rattus norvegicus; test: In vivo agonist activity at NPR-A in Crl:CD(SD) rat assessed as increase in cGMP accumulation in lung at 30 ug/kg/min, iv; type: functional, organism-based
[5] = system: Rattus norvegicus; test: In vivo agonist activity at NPR-A in iv dosed Crl:CD(SD) rat assessed as increase in cGMP accumulation in kidney administered as infusion over 30 mins by radioimmunoassay; type: functional, organism-based
[6] = system: Rattus norvegicus; test: In vivo agonist activity at NPR-A in Crl:CD(SD) rat assessed as increase in cGMP accumulation in kidney at 1 ug/kg/min, iv administered as infusion over 30 mins by radioimmunoassay; type: functional, organism-based
[7] = system: Rattus norvegicus; test: Diuretic activity in Crl:CD(SD) rat assessed as increase in urine volume at 10 ug/kg, iv administered as bolus dose measured up to 60 mins; type: functional, organism-based

Structure (SMILES): CCCCC1C(=O)N=C(N)N1c1nc(NC(=N)N)nc(Nc2ccc(Nc3nc(NC(=N)N)nc(N4C(N)=NC(=O)C4CCCC)n3)cc2)n1 (configuration not stated)
- Activity [1]: Dose-dependent effect
- EC50 [2]: 23 nM
- EC50 [3]: 2 nM
- Activity [4]: Active
- Activity [5]: Dose-dependent effect

Structure (SMILES): CC(C)CC1C(=O)N=C(N)N1c1nc(NC(=N)N)nc(Nc2ccccc2)n1 (configuration not stated)
- EC50 [3]: 4000 nM

Structure (SMILES): CC[C@H](C)[C@@H]1NC(=O)[C@H](CCCNC(=N)N)NC(=O)[C@H](CC(=O)O)NC(=O)[C@H](CCSC)NC(=O)[C@H](CCCNC(=N)N)NC(=O)CNC(=O)CNC(=O)[C@H](Cc2ccccc2)NC(=O)[C@@H](NC(=O)[C@H](CO)NC(=O)[C@H](CO)NC(=O)[C@H](CCCNC(=N)N)NC(=O)[C@H](CCCNC(=N)N)NC(=O)[C@H](CC(C)C)NC(=O)[C@@H](N)CO)CSSC[C@@H](C(=O)N[C@@H](CC(N)=O)C(=O)N[C@@H](CO)C(=O)N[C@@H](Cc2ccccc2)C(=O)N[C@@H](CCCNC(=N)N)C(=O)N[C@@H](Cc2ccc(O)cc2)C(=O)O)NC(=O)CNC(=O)[C@H](CC(C)C)NC(=O)CNC(=O)[C@H](CO)NC(=O)[C@H](CCC(N)=O)NC(=O)[C@H](C)NC(=O)CNC1=O
- Activity [6]: Active
- Activity [7]: Active

Structure (SMILES): C/N=C(\N(C)C)N(C)c1nc(Nc2ccccc2)nc(N2C(N)=NC(=O)C2CC(C)C)n1 (configuration not stated)
- EC50 [3]: 64000 nM

Structure (SMILES): CC(C)CC1C(=O)N=C(N)N1c1nc(NC(=N)N)nc(NC2CCC(Nc3nc(NC(=N)N)nc(N4C(N)=NC(=O)C4CC(C)C)n3)CC2)n1 (configuration not stated)
- Activity [1]: Dose-dependent effect
- EC50 [2]: 76 nM
- EC50 [3]: 8.1 nM
- Activity [4]: Active
- Activity [5]: Dose-dependent effect

Structure (SMILES): CC1C(=O)N=C(N)N1c1nc(NC(=N)N)nc(Nc2ccc(Nc3nc(NC(=N)N)nc(N4C(N)=NC(=O)C4C)n3)cc2)n1 (configuration not stated)
- EC50 [3]: > 10000 nM

Structure (SMILES): CC(C)CC1C(=O)N=C(N)N1c1nc(NC(=N)N)nc(Nc2ccc(Nc3nc(NC(=N)N)nc(N4C(N)=NC(=O)C4CC(C)C)n3)cc2)n1 (configuration not stated)
- EC50 [3]: 5.8 nM

Structure (SMILES): CC(C)CC1C(=O)N=C(N)N1c1nc(NC(=N)N)nc(Nc2ccc(Nc3nc(NC(=N)N)nc(N4C(N)=NC(=O)C4C)n3)cc2)n1 (configuration not stated)
- EC50 [3]: 19 nM
